Measurements taken from patent publication US20100004738A1, “DRUG DELIVERY COATING FOR USE WITH A MEDICAL DEVICE AND METHODS OF TREATING VASCULAR INJURY” (ATRIUM MEDICAL CORPORATION, priority 2005, published 2010).
Blank lines part the entries; values can stand above or below the molecule they belong to.

How the values were obtained:
Assay type in all cases: in vivo
rabbit illiac arteries [1] = test: Example 2: drug-loaded Atrium Flyer stents vs Taxus Express in rabbit iliac arteries for 28 days, histomorphic and histopathologic analyses; conditions: for EEL Area / IEL Area / Intimal Area / Lumen Area / Stenosis: mean ± SD
Method: Histomorphic and histopathologic analyses are then performed.

rabbit's iliac vessel = test: Rapamycin drug eluting stents in rabbit iliac vessel, inflammation (inventors' earlier studies)
Description: The inventors postulate, based on these animal study results, that one consequence of these types of drugs is retarded endothelial cell coverage, and that current drug eluting stents promote more chronic inflammation than would normally be present with a non drug eluting bare metal stent.

rabbit illiac arteries [2] = test: Example 1: stents implanted in rabbit iliac arteries for 28 days, histomorphic and histopathologic analyses; parameters: Injury Score / Fibrin Score / Inflamm. Score: scale not given here; conditions: for % Endothel. / % struts with Fibrin / % struts with RBC / EEL Area / Fibrin Score / IEL Area / Inflamm. Score / Injury Score / Intimal Area / Intimal Thick. / Lumen Area / Medial Area / Medial Thick. / Stenosis / Struts with Giant cells: Atrium Flyer ALPHA-3 coated stent, mean ± SD
Method: The Atrium Flyer is compared with bare metal stents, the Atrium Flyer coated with ALPHA-3 without drugs, and Cypher™ drug eluting stent. Histomorphic and histopathologic analyses are then performed.

rabbit iliacs = test: Calcineurin inhibiting compounds after vascular injury in rabbit iliacs (inventors' earlier studies); conditions: local delivery, also rat, by reducing giant cell and eosinophil formation
Description: Studies in rabbit iliacs following vascular injury conducted by and/or on behalf of the inventors show the benefits of using calcineurin inhibiting compounds like Tacrolimus, Cyclosporin A (CsA) and Cyclosporin derivatives, in small animals like the rat, and in rabbits. […] Such vascular injury and sirolimus medicated inflammation can be characterized as having excessive giant cell formation and esinophil propagation.

[3] = Atrium Flyer ALPHA-3 coated stent loaded with high dose of the drug, 28 days
[4] = Atrium Flyer ALPHA-3 coated stent loaded with low dose of the drug, 28 days
[5] = Atrium Flyer ALPHA-3 coated stent loaded with mid-dose of the drug, 28 days
[6] = sirolimus = Atrium drug coated stents, Cypher = commercial stent

arterial healing (in words) (rabbit illiac arteries [1]; rabbit, in vivo): (greater) arterial healing
Molecule: CC(=O)O[C@H]1C(=O)[C@@]2(C)[C@H]([C@H](OC(=O)c3ccccc3)[C@]3(O)C[C@H](OC(=O)[C@H](O)[C@@H](NC(=O)c4ccccc4)c4ccccc4)C(C)=C1C3(C)C)[C@]1(OC(C)=O)CO[C@@H]1C[C@@H]2O [Paclitaxel, paclitaxel]
EEL Area (rabbit illiac arteries [1]; [3]): 5.63 ± 0.24 mm^2
IEL Area (rabbit illiac arteries [1]; [3]): 5.40 ± 0.24 mm^2
Intimal Area (rabbit illiac arteries [1]; [3]): 1.048 ± 0.084 mm^2
Lumen Area (rabbit illiac arteries [1]; [3]): 4.35 ± 0.22 mm^2
Stenosis (rabbit illiac arteries [1]; [3]): 19.4 ± 1.5%
EEL Area (rabbit illiac arteries [1]; [4]): 5.88 ± 0.41 mm^2
IEL Area (rabbit illiac arteries [1]; [4]): 5.58 ± 0.36 mm^2
Intimal Area (rabbit illiac arteries [1]; [4]): 1.234 ± 0.197 mm^2
Lumen Area (rabbit illiac arteries [1]; [4]): 4.35 ± 0.40 mm^2
Stenosis (rabbit illiac arteries [1]; [4]): 22.2 ± 4.0%
EEL Area (rabbit illiac arteries [1]; [5]): 5.56 ± 0.26 mm^2
IEL Area (rabbit illiac arteries [1]; [5]): 5.31 ± 0.25 mm^2
Intimal Area (rabbit illiac arteries [1]; [5]): 1.152 ± 0.243 mm^2
Lumen Area (rabbit illiac arteries [1]; [5]): 4.16 ± 0.27 mm^2
Stenosis (rabbit illiac arteries [1]; [5]): 21.8 ± 5.0%
in-stent neointimal growth (in words) (rabbit illiac arteries [1]; Atrium high dose stents, 28 days, compared with Taxus Express): suppresses in-stent neointimal growth

Molecule: CO[C@H]1C[C@@H]2CC[C@@H](C)[C@@](O)(O2)C(=O)C(=O)N2CCCC[C@H]2C(=O)O[C@H]([C@H](C)C[C@@H]2CC[C@@H](O)[C@H](OC)C2)CC(=O)[C@H](C)/C=C(\C)[C@@H](O)[C@@H](OC)C(=O)[C@H](C)C[C@H](C)/C=C/C=C/C=C/1C [Sirolimus, Sirolimus (rapamycin)]
EEL Area (rabbit illiac arteries [1]; [3]): 6.13 ± 0.15 mm^2
IEL Area (rabbit illiac arteries [1]; [3]): 5.80 ± 0.16 mm^2
Intimal Area (rabbit illiac arteries [1]; [3]): 1.027 ± 0.036 mm^2
Lumen Area (rabbit illiac arteries [1]; [3]): 4.78 ± 0.20 mm^2
Stenosis (rabbit illiac arteries [1]; [3]): 17.7 ± 1.1%
arterial healing (in words) (rabbit illiac arteries [1]; rabbit, in vivo): (greater) arterial healing
% Struts with Giant cells (rabbit illiac arteries [1]; rabbit, in vivo, 28 days): 21.9 ± 7.6%
% struts with RBC (rabbit illiac arteries [1]; rabbit, in vivo, 28 days): 1.2 ± 2.4%
Endothelium (%) (rabbit illiac arteries [1]; rabbit, in vivo, 28 days): 97.2 ± 5.0%
Fibrin Score (rabbit illiac arteries [1]; rabbit, in vivo, 28 days): 0.41 ± 0.32
Inflam Score (rabbit illiac arteries [1]; rabbit, in vivo, 28 days): 1.00 ± 0.72
inflammatory response around the drug eluting stent (in words) (rabbit's iliac vessel; Rapamycin drug eluting stent, rabbit iliacs): presence of numerous giant cells and esinophils
amount of inflammation induced by overlapping drug coating (rabbit's iliac vessel; two separate rapamycin drug eluting stents overlapping in rabbit iliac vessel): increases nearly two fold
tolerability / adverse reaction (rabbit illiac arteries [2]; Atrium Flyer ALPHA-3 coated stent loaded with low or high doses of sirolimus): well tolerated, producing no adverse reaction
% Endothel. (rabbit illiac arteries [2]; high dose sirolimus, n = 10): 97.90 ± 4.58%
% struts with Fibrin (rabbit illiac arteries [2]; high dose sirolimus, n = 10): 11.99 ± 6.81%
% struts with RBC (rabbit illiac arteries [2]; high dose sirolimus, n = 10): 2.86 ± 3.23%
EEL Area (rabbit illiac arteries [2]; high dose sirolimus, n = 10): 6.24 ± 0.25 mm^2
Fibrin Score (rabbit illiac arteries [2]; high dose sirolimus, n = 10): 0.11 ± 0.09
IEL Area (rabbit illiac arteries [2]; high dose sirolimus, n = 10): 5.90 ± 0.25 mm^2
Inflamm. Score (rabbit illiac arteries [2]; high dose sirolimus, n = 10): 0.03 ± 0.10
Injury Score (rabbit illiac arteries [2]; high dose sirolimus, n = 10): 0.04 ± 0.06
Intimal Area (rabbit illiac arteries [2]; high dose sirolimus, n = 10): 0.99 ± 0.10 mm^2
Intimal Thick. (rabbit illiac arteries [2]; high dose sirolimus, n = 10): 0.08 ± 0.03 mm
Lumen Area (rabbit illiac arteries [2]; high dose sirolimus, n = 10): 4.94 ± 0.27 mm^2
Medial Area (rabbit illiac arteries [2]; high dose sirolimus, n = 10): 0.34 ± 0.05 mm^2
Medial Thick. (rabbit illiac arteries [2]; high dose sirolimus, n = 10): 0.06 ± 0.02 mm
Stenosis (rabbit illiac arteries [2]; high dose sirolimus, n = 10): 16.73 ± 1.61%
Struts with Giant cells (rabbit illiac arteries [2]; high dose sirolimus, n = 10, in % (unit assumed)): 2.80 ± 0.63
% Endothel. (rabbit illiac arteries [2]; low dose sirolimus, n = 8): 97.62 ± 2.67%
% struts with Fibrin (rabbit illiac arteries [2]; low dose sirolimus, n = 8): 34.12 ± 20.62%
% struts with RBC (rabbit illiac arteries [2]; low dose sirolimus, n = 8): 3.46 ± 3.07%
EEL Area (rabbit illiac arteries [2]; low dose sirolimus, n = 8): 5.99 ± 0.44 mm^2
Fibrin Score (rabbit illiac arteries [2]; low dose sirolimus, n = 8): 0.20 ± 0.35
IEL Area (rabbit illiac arteries [2]; low dose sirolimus, n = 8): 5.63 ± 0.38 mm^2
Inflamm. Score (rabbit illiac arteries [2]; low dose sirolimus, n = 8): 0.53 ± 0.41
Injury Score (rabbit illiac arteries [2]; low dose sirolimus, n = 8): 0.06 ± 0.07
Intimal Area (rabbit illiac arteries [2]; low dose sirolimus, n = 8): 0.97 ± 0.11 mm^2
Intimal Thick. (rabbit illiac arteries [2]; low dose sirolimus, n = 8): 0.07 ± 0.01 mm
Lumen Area (rabbit illiac arteries [2]; low dose sirolimus, n = 8): 4.74 ± 0.32 mm^2
Medial Area (rabbit illiac arteries [2]; low dose sirolimus, n = 8): 0.36 ± 0.09 mm^2
Medial Thick. (rabbit illiac arteries [2]; low dose sirolimus, n = 8): 0.05 ± 0.01 mm
Stenosis (rabbit illiac arteries [2]; low dose sirolimus, n = 8): 17.15 ± 1.84%
Struts with Giant cells (rabbit illiac arteries [2]; low dose sirolimus, n = 8, in % (unit assumed)): 2.50 ± 1.41
endothelialization (in words) (rabbit illiac arteries [2]; [6]): well endothelialized
healing (in words) (rabbit illiac arteries [2]; [6]): delayed healing

Molecule: C=CC[C@@H]1/C=C(\C)C[C@H](C)C[C@H](OC)[C@H]2O[C@@](O)(C(=O)C(=O)N3CCCC[C@H]3C(=O)O[C@H](/C(C)=C/[C@@H]3CC[C@@H](O)[C@H](OC)C3)[C@H](C)[C@@H](O)CC1=O)[C@H](C)C[C@@H]2OC [Tacrolimus]
inflammation following vascular injury (in words) (rabbit iliacs): effectively reduce inflammation following vascular injury

Molecule: Cyclosporin A
inflammation following vascular injury (in words) (rabbit iliacs): effectively reduce inflammation following vascular injury

Molecule: O=C1CCc2cc(OCCCCc3nnnn3C3CCCCC3)ccc2N1 [Cilostazol, cilostazol]
EEL Area (rabbit illiac arteries [1]; [3]): 5.73 ± 0.31 mm^2
IEL Area (rabbit illiac arteries [1]; [3]): 5.47 ± 0.26 mm^2
Intimal Area (rabbit illiac arteries [1]; [3]): 1.245 ± 0.303 mm^2
Lumen Area (rabbit illiac arteries [1]; [3]): 4.25 ± 0.42 mm^2
Stenosis (rabbit illiac arteries [1]; [3]): 22.7 ± 5.9%
EEL Area (rabbit illiac arteries [1]; [4]): 5.80 ± 0.22 mm^2
IEL Area (rabbit illiac arteries [1]; [4]): 5.51 ± 0.21 mm^2
Intimal Area (rabbit illiac arteries [1]; [4]): 1.246 ± 0.115 mm^2
Lumen Area (rabbit illiac arteries [1]; [4]): 4.26 ± 0.28 mm^2
Stenosis (rabbit illiac arteries [1]; [4]): 22.7 ± 2.4%
EEL Area (rabbit illiac arteries [1]; [5]): 5.70 ± 0.16 mm^2
IEL Area (rabbit illiac arteries [1]; [5]): 5.43 ± 0.14 mm^2
Intimal Area (rabbit illiac arteries [1]; [5]): 1.257 ± 0.321 mm^2
Lumen Area (rabbit illiac arteries [1]; [5]): 4.25 ± 0.39 mm^2
Stenosis (rabbit illiac arteries [1]; [5]): 23.0 ± 5.7%
reduction in neointima (in words) (rabbit illiac arteries [1]; Atrium Flyer coated stents, 28 days): No reduction in neointima
